Source: US7432276B2, “ABCA1 elevating compounds” (CV Therapeutics, Inc., priority 2005, dated 2008)

Test system: ABCA1 mRNA
Experiment: ABCA1 mRNA induction in THP-1 cells, QuantiGene branched DNA assay
Type: cell-based
Details: 10 μM test compound, 18-20 hours; for fold induction at 10 µM: Homo sapiens, read-out: ABCA1 Induction Fold Increase over DMSO Vehicle
Description: Modulation of expression of ABCA1 mRNA levels by the compounds of the invention was determined in the following assays.
Induction of ABC1 in THP-1 cells, was measured using QuantiGene® branched DNA assay as per manufacturer's instructions. Cultures of THP-1 were grown to subconfluence in DMEM/10% FBS before replacement with DMEM/BSA and 10 and 3 μM concentrations of the test compounds in DMSO for 18-20 hours. After treatment of cells with compounds, the cells were lysed with lysis buffer at 37° C. for 20 minutes. The cell lysate and ABCA1 specific probe (Genospectra, Inc., Fremont, Calif.) mix were added to the 96 well capture plate and hybridized at 53° C. for 16-18 hours. The signal was amplified using the amplifier and label probes provided with the QuantiGene® assay followed by addition of a luminescent alkaline phosphatase substrate, dioxitane. Luminescence was quantified in Victor V plate reader.
Step 1 • Cells are lysed to release mRNA in the presence of target probes. Target mRNA from lysed cells was then captured by hybridization and transferred to the Capture Plate.
Step 2 • Signal amplification was performed by hybridization of the bDNA Amplifier and Label Probe.
Step 3 • Addition of chemiluminescence substrate yielded a QuantiGene® signal proportional to the amount of mRNA present in the sample.
Table 1 presents the relative fold increase in ABCA1 expression over DMSO for various compounds of the invention when tested at a concentration of […].

Compound	ABCA1 Induction Fold Increase over DMSO Vehicle [FOLD INCREASE]	fold induction at 10 µM
CC1(C)c2cc(C(O)(C(F)(F)F)C(F)(F)F)ccc2N[C@H]2c3ccccc3OC[C@H]21 [Number 70, 2-((6aS,12aR)-7,7-dimethyl(7,12,12a,6a-tetrahydrochromano[4,3-b]quinolin-9-yl))-1,1,1,3,3,3-hexafluoropropan-2-ol]	4.0	–
CCCN1c2ccccc2C(C)(C)[C@H]2COc3cccc(OC)c3[C@H]21 [Number 172, (6aR,12aS)-12-propyl-6a,7,12,12a-tetrahydro-1-methoxy-7,7-dimethyl-6H-chromeno[4,3-b]quinoline]	–	1.7
COc1cccc2c1OCC1C2Nc2ccc(CC(=O)O)cc2C1(C)C (centres unmarked) [Number 26, 2-(4-methoxy-7,7-dimethyl-7,12,12a,6a-tetrahydrochromano[4,3-b]quinolin-9-yl)acetic acid]	5.0	–
CCOP(=O)(Cc1ccc2c(c1)C(C)(C)C1COc3c(OC)cc(Cl)cc3C1N2)OCC (centres unmarked) [Number 91, [(2-chloro-4-methoxy-7,7-dimethyl(7,12,12a,6a-tetrahydrochromano[4,3-b]quinolin-9-yl))methyl]diethoxyphosphino-1-one]	6.2	–
COc1ccc(Br)c2c1OCC1C2Nc2ccc(-c3cnco3)cc2C1(C)C (centres unmarked) [Number 79, 1-bromo-4-methoxy-7,7-dimethyl-9-(1,3-oxazol-5-yl)-7,12,12a,6a-tetrahydrochromano[4,3-b]quinoline]	4.1	–
CCOC(=O)c1ccc(-c2ccc3c(c2)C(C)(C)[C@@H]2COc4cccc(OC)c4[C@H]2N3)cc1 [Number 96, ethyl 4-((12aS,6aS)-1-methoxy-7,7-dimethyl-7,12,12a,6a-tetrahydrochromano[4,3-b]quinolin-9-yl)benzoate]	7.6	–
CC1(C)c2cc(C(N)=O)ccc2NC2c3cc(Br)ccc3OCC21 (centres unmarked) [Number 5, 2-bromo-7,7-dimethyl-7,12,12a,6a-tetrahydrochromano[4,3-b]quinoline-9-carboxamide]	3.5	–
COc1ccc(Br)c2c1OCC1C2Nc2ccc(OC(C)C)cc2C1(C)C (centres unmarked) [Number 83, 1-bromo-4-methoxy-7,7-dimethyl-9-(methylethoxy)-7,12,12a,6a-tetrahydrochromano[4,3-b]quinoline]	2.7	–
COC(=O)c1ccc2c(c1)C(C)(C)[C@H]1COc3c(OC)cc(Br)cc3[C@H]1N2 [Number 151, (6aR,12aS)-methyl 2-bromo-6a,7,12,12a-tetrahydro-4-methoxy-7,7-dimethyl-6H-chromeno[4,3-b]quinoline-9-carboxylate]	–	6.3
CCOC(=O)c1cnn(-c2ccc3c(c2)C(C)(C)[C@H]2COc4cccc(OC)c4[C@H]2N3)c1 [Number 135, ethyl 1-((6aR,12aS)-6a,7,12,12a-tetrahydro-1-methoxy-7,7-dimethyl-6H-chromeno[4,3-b]quinolin-9-yl)-1H-pyrazole-4-carboxylate]	–	6.4
CCOC(=O)c1cnn(-c2ccc3c(c2)C(C)(C)[C@H]2COc4cccc(OC)c4[C@H]2N3)c1C [Number 116, ethyl 1-((6aR,12aS)-6a,7,12,12a-tetrahydro-1-methoxy-7,7-dimethyl-6H-chromeno[4,3-b]quinolin-9-yl)-5-methyl-1H-pyrazole-4-carboxylate]	–	2.7
COc1cccc2c1[C@H]1Nc3cc(C#N)ccc3C(C)(C)[C@H]1CO2 [Number 63, (12aS,6aR)-1-methoxy-7,7-dimethyl-7,12,12a,6a-tetrahydrochromano[4,3-b]quinoline-10-carbonitrile]	3.5	–
CC1(C)c2cc(C(O)(C(F)(F)F)C(F)(F)F)ccc2NC2c3cc(OC(F)(F)F)ccc3OCC21 (centres unmarked) [Number 8, 2-[7,7-dimethyl-2-(trifluoromethoxy)(7,12,12a,6a-tetrahydrochromano[4,3-b]quinolin-9-yl)]-1,1,1,3,3,3-hexafluoropropan-2-ol]	3.0	–
CC1(C)c2cc(C(=O)N3CCNCC3)ccc2N[C@@H]2c3c(F)cccc3OC[C@@H]21 [Number 130, ((6aR,12aS)-1-fluoro-6a,7,12,12a-tetrahydro-7,7-dimethyl-6H-chromeno[4,3-b]quinolin-9-yl)(piperazin-1-yl)methanone]	–	4.2
COc1cc(I)cc2c1OC[C@H]1[C@@H]2Nc2ccc(-n3ncc(C(=O)O)c3C)cc2C1(C)C [Number 178, 1-((6aR,12aS)-6a,7,12,12a-tetrahydro-2-iodo-4-methoxy-7,7-dimethyl-6H-chromeno[4,3-b]quinolin-9-yl)-5-methyl-1H-pyrazole-4-carboxylic acid]	–	5.1
CCOP(=O)(Cc1ccc2c(c1)C(C)(C)[C@H]1COc3c(OC)cc(Br)cc3[C@H]1N2)OCC [Number 168, diethyl ((6aR,12aS)-2-bromo-6a,7,12,12a-tetrahydro-4-methoxy-7,7-dimethyl-6H-chromeno[4,3-b]quinolin-9-yl)methylphosphonate]	–	4
COc1ccccc1-c1ccc2c(c1)C(C)(C)C1=C(c3cccc(F)c3OC1)N2O [Number 104, 4-fluoro-9-(2-methoxyphenyl)-7,7-dimethyl-7,12-dihydro-6H-chromeno[4,3-b]quinolin-12-ol]	–	2.9
CCCCN1c2ccccc2C(C)(C)[C@H]2COc3cccc(OC)c3[C@H]21 [Number 174, (6aR,12aS)-12-butyl-6a,7,12,12a-tetrahydro-1-methoxy-7,7-dimethyl-6H-chromeno[4,3-b]quinoline]	–	1.9
COc1cccc2c1[C@@H]1[C@@H](CO2)C(C)(C)c2ccccc2N1CC(=O)O [Number 156, 2-((6aS,12aS)-6a,7-dihydro-1-methoxy-7,7-dimethyl-6H-chromeno[4,3-b]quinolin-12(12aH)-yl)acetic acid]	–	7.6
CC(C)Oc1ccc2c(c1)C(C)(C)C1COc3c(F)cccc3[C@H]1N2 (stereo partly drawn) [Number 103, (12aS)-4-fluoro-7,7-dimethyl-9-(methylethoxy)-7,12,12a,6a-tetrahydrochromano[4,3-b]quinoline]	4.0	–
COc1cccc2c1OC[C@@H]1[C@@H]2Nc2ccc(C(C)C)cc2C1(C)C [Number 47, (12aS,6aS)-4-methoxy-7,7-dimethyl-9-(methylethyl)-7,12,12a,6a-tetrahydrochromano[4,3-b]quinoline]	3.6	–
COc1cc(-c2c(C)noc2C)cc2c1OC[C@H]1[C@@H]2Nc2ccc(-c3cnco3)cc2C1(C)C [Number 165, (6aR,12aS)-6a,7,12,12a-tetrahydro-4-methoxy-7,7-dimethyl-2-(3,5-dimethylisoxazol-4-yl)-9-(oxazol-5-yl)-6H-chromeno[4,3-b]quinoline]	–	7.4
CCOP(=O)(Cc1ccc2c(c1)C(C)(C)C1COc3cccc(OC)c3C1N2)OCC (centres unmarked) [Number 180, diethyl(6a,7,12,12a-tetrahydro-1-methoxy-7,7-dimethyl-6H-chromeno[4,3-b]quinolin-9-yl)methylphosphonate]	–	2.2
COc1cccc2c1[C@H]1Nc3ccc(-c4ccc(S(N)(=O)=O)cc4)cc3C(C)(C)[C@@H]1CO2 [Number 97, 4-((12aS,6aS)-1-methoxy-7,7-dimethyl-7,12,12a,6a-tetrahydrochromano[4,3-b]quinolin-9-yl)benzenesulfonamide]	5.7	–
CC(C)=CCOC(=O)c1ccc2c(c1)OCC1C2Nc2ccc(C(O)(C(F)(F)F)C(F)(F)F)cc2C1(C)C (centres unmarked) [Number 12, 3-methylbut-2-enyl 7,7-dimethyl-9-[2,2,2-trifluoro-1-hydroxy-1-(trifluoromethyl)ethyl]-7,12,12a,6a-tetrahydrochromano[4,3-b]quinoline-3-carboxylate]	4.6	–
CCOP(=O)(Cc1ccc2c(c1)C(C)(C)[C@@H]1COc3c(OC)cc(Br)cc3[C@H]1N2)OCC [Number 179, diethyl((6aS,12aS)-2-bromo-6a,7,12,12a-tetrahydro-4-methoxy-7,7-dimethyl-6H-chromeno[4,3-b]quinolin-9-yl)methylphosphonate]	–	5.2
COc1cccc2c1C1Nc3ccc(C(O)(C(F)(F)F)C(F)(F)F)cc3C(C)(C)C1CO2 (centres unmarked) [Number 24, 1,1,1,3,3,3-hexafluoro-2-(1-methoxy-7,7-dimethyl(7,12,12a,6a-tetrahydrochromano[4,3-b]quinolin-9-yl))propan-2-ol]	6.5	–
COc1cccc2c1OC[C@@H]1[C@H]2Nc2ccc(CCC(=O)O)cc2C1(C)C [Number 27, 3-((6aS,12aR)-4-methoxy-7,7-dimethyl-7,12,12a,6a-tetrahydrochromano[4,3-b]quinolin-9-yl)propanoic acid]	3.3	–
CCOP(=O)(Cc1ccc2c(c1)C(C)(C)C1COc3cccc(OC)c3C1N2)OCC (centres unmarked) [Number 90, diethoxy[(1-methoxy-7,7-dimethyl(7,12,12a,6a-tetrahydrochromano[4,3-b]quinolin-9-yl))methyl]phosphino-1-one]	7.6	–
